The source of these data is ChEMBL document CHEMBL4396940, “Synthesis and biological evaluation of 4-(piperid-3-yl)amino substituted 6-pyridylquinazolines as potent PI3Kδ inhibitors” (Bioorg Med Chem, 2019).

Where only a bound is given, the exact number is not on record here.

Test [1] has as its target T1, Phosphatidylinositol 4,5-bisphosphate 3-kinase catalytic subunit delta isoform (Homo sapiens, UniProt O00329).
T1 sequence (O00329 whole entry): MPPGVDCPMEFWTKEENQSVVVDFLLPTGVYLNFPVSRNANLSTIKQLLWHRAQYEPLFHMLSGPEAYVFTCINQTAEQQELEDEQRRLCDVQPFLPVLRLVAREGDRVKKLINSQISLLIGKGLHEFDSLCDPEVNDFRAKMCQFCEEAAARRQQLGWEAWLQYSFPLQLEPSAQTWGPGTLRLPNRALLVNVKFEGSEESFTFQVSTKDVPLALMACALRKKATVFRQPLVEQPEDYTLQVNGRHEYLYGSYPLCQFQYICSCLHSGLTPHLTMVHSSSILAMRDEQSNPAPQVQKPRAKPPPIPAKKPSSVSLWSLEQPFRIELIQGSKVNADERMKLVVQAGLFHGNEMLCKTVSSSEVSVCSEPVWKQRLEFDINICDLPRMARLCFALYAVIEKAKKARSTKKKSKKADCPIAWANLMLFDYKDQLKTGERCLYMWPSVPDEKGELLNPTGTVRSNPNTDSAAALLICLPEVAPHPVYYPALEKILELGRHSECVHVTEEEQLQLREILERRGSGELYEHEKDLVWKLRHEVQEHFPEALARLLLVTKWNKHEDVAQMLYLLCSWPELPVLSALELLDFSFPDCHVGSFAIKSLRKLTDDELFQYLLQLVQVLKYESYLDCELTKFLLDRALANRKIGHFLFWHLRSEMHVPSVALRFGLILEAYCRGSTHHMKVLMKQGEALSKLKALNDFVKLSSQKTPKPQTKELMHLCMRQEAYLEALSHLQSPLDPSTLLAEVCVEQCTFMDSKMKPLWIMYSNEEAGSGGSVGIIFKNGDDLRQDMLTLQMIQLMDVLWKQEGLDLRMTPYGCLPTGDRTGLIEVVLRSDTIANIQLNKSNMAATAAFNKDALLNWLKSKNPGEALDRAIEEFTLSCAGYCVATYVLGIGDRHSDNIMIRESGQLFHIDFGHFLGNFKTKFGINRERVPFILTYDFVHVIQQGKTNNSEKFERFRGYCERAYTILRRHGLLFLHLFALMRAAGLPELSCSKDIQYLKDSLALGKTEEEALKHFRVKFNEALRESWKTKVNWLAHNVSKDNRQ
Put plainly: Inhibition of PI3K delta (unknown origin) using phosphatidyl inositol as substrate measured after 60 mins in presence of ATP by Kinase-Glo Plus reagent-based luminescence assay.

Test [2] deals with SU-DHL-6. Put plainly: Antiproliferative activity against human SUDHL6 cells by MTT assay. It counts as functional, cell-based.
Test [3] deals with Ramos. The test is described as follows: Antiproliferative activity against human Ramos cells by MTT assay. It counts as functional, cell-based.
For test [4], the system named is Raji. Put plainly: Antiproliferative activity against human Raji cells by MTT assay. It counts as functional, cell-based.
Test [5] deals with HCT-116. The test is described as follows: cells. To be noted: Homo sapiens.
Description: Antiproliferative activity against human HCT116 cells by MTT assay
For test [6], the system named is MCF7. Put plainly: cells. As to conditions: Homo sapiens.
Description: Antiproliferative activity against human MCF7 cells by MTT assay
For test [7], the target named is Phosphatidylinositol 4,5-bisphosphate 3-kinase catalytic subunit alpha isoform (Homo sapiens, UniProt P42336). Put plainly: Inhibition of PI3K alpha (unknown origin) using phosphatidyl inositol as substrate measured after 60 mins in presence of ATP by Kinase-Glo Plus reagent-based luminescence assay.
Sequence of Phosphatidylinositol 4,5-bisphosphate 3-kinase catalytic subunit alpha isoform (P42336 whole entry, canonical isoform): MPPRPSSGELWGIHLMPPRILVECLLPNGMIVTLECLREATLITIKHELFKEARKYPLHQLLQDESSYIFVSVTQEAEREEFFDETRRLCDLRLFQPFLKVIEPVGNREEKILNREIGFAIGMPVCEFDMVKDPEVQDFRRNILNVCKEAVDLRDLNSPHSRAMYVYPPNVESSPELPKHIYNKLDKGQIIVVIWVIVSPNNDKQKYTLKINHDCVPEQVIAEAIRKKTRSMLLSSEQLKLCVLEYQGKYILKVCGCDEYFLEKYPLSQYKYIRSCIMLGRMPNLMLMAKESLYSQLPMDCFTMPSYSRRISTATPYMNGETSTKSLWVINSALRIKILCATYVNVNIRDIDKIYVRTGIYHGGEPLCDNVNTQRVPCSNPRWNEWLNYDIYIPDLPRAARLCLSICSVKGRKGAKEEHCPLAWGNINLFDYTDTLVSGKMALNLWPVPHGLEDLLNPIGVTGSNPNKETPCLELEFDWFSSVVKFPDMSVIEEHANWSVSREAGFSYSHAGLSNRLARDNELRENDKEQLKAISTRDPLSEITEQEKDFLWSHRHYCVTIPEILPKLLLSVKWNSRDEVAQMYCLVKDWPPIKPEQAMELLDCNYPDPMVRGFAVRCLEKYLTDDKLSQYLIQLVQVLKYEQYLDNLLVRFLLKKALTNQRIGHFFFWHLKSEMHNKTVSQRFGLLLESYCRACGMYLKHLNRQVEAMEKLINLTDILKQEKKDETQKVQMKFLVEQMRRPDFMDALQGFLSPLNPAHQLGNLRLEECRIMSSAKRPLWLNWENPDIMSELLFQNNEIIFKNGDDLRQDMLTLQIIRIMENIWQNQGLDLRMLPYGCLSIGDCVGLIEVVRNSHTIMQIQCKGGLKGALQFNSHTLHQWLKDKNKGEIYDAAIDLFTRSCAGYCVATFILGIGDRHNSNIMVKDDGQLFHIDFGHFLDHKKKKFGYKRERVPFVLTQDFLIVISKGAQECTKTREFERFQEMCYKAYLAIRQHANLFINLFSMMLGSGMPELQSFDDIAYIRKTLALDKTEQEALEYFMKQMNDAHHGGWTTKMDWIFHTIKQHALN
In test [8] the target is Phosphatidylinositol 4,5-bisphosphate 3-kinase catalytic subunit beta isoform (Homo sapiens, UniProt P42338). The test is described as follows: Inhibition of PI3K beta (unknown origin) using phosphatidyl inositol as substrate measured after 60 mins in presence of ATP by Kinase-Glo Plus reagent-based luminescence assay.
Sequence of Phosphatidylinositol 4,5-bisphosphate 3-kinase catalytic subunit beta isoform (P42338 whole entry, canonical isoform): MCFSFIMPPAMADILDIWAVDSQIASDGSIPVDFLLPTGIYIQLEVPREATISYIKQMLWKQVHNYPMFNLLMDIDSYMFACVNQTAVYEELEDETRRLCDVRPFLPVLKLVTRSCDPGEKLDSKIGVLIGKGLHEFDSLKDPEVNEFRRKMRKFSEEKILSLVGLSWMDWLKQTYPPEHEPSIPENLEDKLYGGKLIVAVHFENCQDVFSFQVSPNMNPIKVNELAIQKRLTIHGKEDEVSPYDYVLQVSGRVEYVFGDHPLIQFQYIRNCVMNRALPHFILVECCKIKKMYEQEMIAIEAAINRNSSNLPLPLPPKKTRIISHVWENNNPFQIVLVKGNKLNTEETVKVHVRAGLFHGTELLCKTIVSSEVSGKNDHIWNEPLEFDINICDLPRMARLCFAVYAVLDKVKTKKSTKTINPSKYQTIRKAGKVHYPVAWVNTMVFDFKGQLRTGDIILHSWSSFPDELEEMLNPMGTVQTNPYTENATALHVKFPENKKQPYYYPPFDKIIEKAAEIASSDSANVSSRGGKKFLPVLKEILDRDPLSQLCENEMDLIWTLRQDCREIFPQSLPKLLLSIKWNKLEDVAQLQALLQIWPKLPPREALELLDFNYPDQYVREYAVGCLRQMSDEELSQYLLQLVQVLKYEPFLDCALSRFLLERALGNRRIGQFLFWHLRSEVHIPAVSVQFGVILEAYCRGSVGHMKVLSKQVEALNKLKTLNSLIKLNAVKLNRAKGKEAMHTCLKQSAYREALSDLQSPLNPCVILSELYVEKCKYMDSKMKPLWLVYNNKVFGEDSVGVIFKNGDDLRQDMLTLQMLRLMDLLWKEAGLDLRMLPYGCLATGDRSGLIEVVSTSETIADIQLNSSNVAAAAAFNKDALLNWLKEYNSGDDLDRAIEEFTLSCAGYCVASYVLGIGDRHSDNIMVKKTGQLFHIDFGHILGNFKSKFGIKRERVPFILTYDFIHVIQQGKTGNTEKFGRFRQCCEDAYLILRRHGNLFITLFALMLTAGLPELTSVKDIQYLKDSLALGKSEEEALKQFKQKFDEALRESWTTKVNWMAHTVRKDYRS
Test [9] deals with Phosphatidylinositol 4,5-bisphosphate 3-kinase catalytic subunit gamma isoform (Homo sapiens, UniProt P48736). The test is described as follows: Inhibition of PI3K gamma (unknown origin) using phosphatidyl inositol as substrate measured after 60 mins in presence of ATP by Kinase-Glo Plus reagent-based luminescence assay.
Sequence of Phosphatidylinositol 4,5-bisphosphate 3-kinase catalytic subunit gamma isoform (P48736 whole entry, canonical isoform): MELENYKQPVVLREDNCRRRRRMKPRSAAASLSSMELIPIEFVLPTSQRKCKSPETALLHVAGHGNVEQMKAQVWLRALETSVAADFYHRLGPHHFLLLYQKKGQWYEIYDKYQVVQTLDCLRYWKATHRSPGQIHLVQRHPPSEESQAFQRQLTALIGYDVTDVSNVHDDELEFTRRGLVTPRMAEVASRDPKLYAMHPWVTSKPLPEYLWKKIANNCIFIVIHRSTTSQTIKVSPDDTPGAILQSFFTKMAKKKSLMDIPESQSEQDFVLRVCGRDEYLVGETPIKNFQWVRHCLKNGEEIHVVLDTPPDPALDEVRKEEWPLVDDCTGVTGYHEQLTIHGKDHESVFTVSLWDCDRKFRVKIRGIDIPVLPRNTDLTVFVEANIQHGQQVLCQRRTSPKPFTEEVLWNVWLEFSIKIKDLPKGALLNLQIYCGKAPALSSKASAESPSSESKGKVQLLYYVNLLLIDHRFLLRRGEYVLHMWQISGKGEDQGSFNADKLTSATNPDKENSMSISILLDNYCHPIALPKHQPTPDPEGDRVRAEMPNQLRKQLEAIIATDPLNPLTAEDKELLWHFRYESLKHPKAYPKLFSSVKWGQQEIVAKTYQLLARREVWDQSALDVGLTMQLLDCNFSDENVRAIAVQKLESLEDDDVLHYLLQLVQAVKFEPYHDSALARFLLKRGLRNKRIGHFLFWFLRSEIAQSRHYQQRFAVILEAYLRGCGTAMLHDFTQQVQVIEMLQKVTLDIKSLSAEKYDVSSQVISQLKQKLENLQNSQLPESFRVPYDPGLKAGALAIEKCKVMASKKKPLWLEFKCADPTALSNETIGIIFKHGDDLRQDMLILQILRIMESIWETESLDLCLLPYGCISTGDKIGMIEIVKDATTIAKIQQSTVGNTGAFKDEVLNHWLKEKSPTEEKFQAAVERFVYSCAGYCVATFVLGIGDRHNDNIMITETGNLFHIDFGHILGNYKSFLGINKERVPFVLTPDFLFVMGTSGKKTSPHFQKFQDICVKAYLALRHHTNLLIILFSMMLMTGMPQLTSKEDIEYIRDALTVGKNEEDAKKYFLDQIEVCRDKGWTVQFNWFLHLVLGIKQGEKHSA
The target in test [10] is T1, Phosphatidylinositol 4,5-bisphosphate 3-kinase catalytic subunit delta isoform. The test is described as follows: Inhibition of PI3K delta (unknown origin).
For test [11], the target named is T2, Phosphatidylinositol 4,5-bisphosphate 3-kinase catalytic subunit delta isoform (Homo sapiens) (UniProt O00329).
T2 sequence (whole entry): T1 sequence (O00329 whole entry)
The test is described as follows: Inhibition of PI3K delta in human SUDHL6 cells assessed as reduction in AKT phosphorylation at S473 measured after 8 hrs by Western blot analysis. It counts as cell-based.

For `COc1ncc(-c2ccc3ncnc(N[C@H]4CCCN(C(=O)C(F)(F)F)C4)c3c2)cc1[N+](=O)[O-]`, the figures for the IC50 in test [1] and in test [2] were 27 nM and 127000 nM, respectively.
On to `Cn1c(=O)n(-c2ccc(C(C)(C)C#N)cc2)c2c3cc(-c4cnc5ccccc5c4)ccc3ncc21` [DACTOLISIB], for which the IC50 in [3] came out at 400 nM; in [4] it was 520 nM; in test [5], 300 nM; in [6], 200 nM.
`CC[C@H](Nc1ncnc2[nH]cnc12)c1nc2cccc(F)c2c(=O)n1-c1ccccc1` [IDELALISIB]: the IC50 in test [2] was 33 nM; in test [3], > 10000 nM; in [4], > 10000 nM; in test [5], > 10000 nM; in [6] it was > 10000 nM.
As for `CCOC(=O)CN1CCC[C@H](Nc2ncnc3ccc(-c4cnc(OC)c(C#N)c4)cc23)C1`, the values for the IC50 in [1] and in [2] were 3.2 nM and 500 nM, respectively.
For the molecule `COc1ncc(-c2ccc3ncnc(N[C@H]4CCCN(C(=O)CN(C)C)C4)c3c2)cc1C#N`, the IC50 was 1.3 nM in test [1]; 21.8 nM in test [7]; 150 nM in test [8]; 250 nM in [9]; 160 nM in test [2]; > 10000 nM in test [3]. In addition, the IC50 in test [4], in test [5] and in test [6] was > 10000 nM throughout.
Turning to `COc1ncc(-c2ccc3ncnc(N[C@H]4CCCN(C(=O)C5CCNCC5)C4)c3c2)cc1C#N`, the IC50 came out at 2.5 nM in test [1] and 2440 nM in test [2].
For `COc1ncc(-c2ccc3ncnc(N[C@H]4CCCN(C(=O)C5CCOCC5)C4)c3c2)cc1C#N` the same measures were 7.7 nM and 150 nM.
Regarding `COc1ncc(-c2ccc3ncnc(N[C@H]4CCCN(C(=O)CCl)C4)c3c2)cc1C#N`, the IC50 was 8.9 nM in [1] and 380 nM in test [2].
`COc1ncc(-c2ccc3ncnc(N[C@H]4CCCN(CCO)C4)c3c2)cc1C#N`: the IC50 in test [1] came out at 4.7 nM; in [2], 2050 nM.
With `COc1ncc(-c2ccc3ncnc(N[C@H]4CCCN(C(=O)C(F)(F)F)C4)c3c2)cc1C#N`, the IC50 in [1] amounted to 3.2 nM; in test [2], 210 nM.
For `CCOC(=O)CN1CCC[C@H](Nc2ncnc3ccc(-c4cnc(OC)c(C(F)(F)F)c4)cc23)C1`, the IC50 in test [1] came to 6.8 nM; in test [2], 230 nM.
As to `COc1ncc(-c2ccc3ncnc(N[C@H]4CCCN(C(=O)C5CCN(C)CC5)C4)c3c2)cc1C#N`, the half-maximal inhibitory concentration (IC50) in [1] came out at 9.4 nM; in test [2], 420 nM.
As for `COc1ncc(-c2ccc3ncnc(O[C@H]4CCN(C(=O)C5CCOCC5)C4)c3c2)cc1C#N`, the IC50 in test [10] turned out to be 4.9 nM.
Turning to `COc1ncc(-c2ccc3ncnc(N[C@H]4CCCN(C(=O)c5cccnc5)C4)c3c2)cc1C#N`, the IC50 in [1] is 0.7 nM; in test [7], 120 nM; in test [8], 9.1 nM; in test [9] it was 2 nM; in test [2], 120 nM; in [3] it was > 10000 nM. For the same molecule, the IC50 in [4], in [5] and in test [6] was > 10000 nM each time. Moreover, the inhibition result in test [11] is “Dose-dependent effect”.
Take `COc1ncc(-c2ccc3ncnc(N[C@H]4CCCN(C(=O)[C@H](C)N)C4)c3c2)cc1C#N`: the IC50 in [1] is 3.7 nM; in test [7], 18.2 nM; in test [8], 147 nM; in test [9], 211 nM; in [2] it was 440 nM; in test [3], > 10000 nM. For the same molecule, the IC50 in test [4], in [5] and in [6] was > 10000 nM each time.
As to `COc1ncc(-c2ccc3ncnc(N[C@H]4CCCN(C(=O)CCBr)C4)c3c2)cc1C#N`, the IC50 was 14.3 nM in test [1] and 15 nM in test [2].
